Measurements published in patent publication EP4043466B1, “PRC2 INHIBITORS” (Mirati Therapeutics, Inc., priority 2018, dated 2019).

Tests used:
[1] = biological target: purified human, His-tagged PRC2 complex (Homo sapiens, UniProt O75530+Q15910); assay: Hot Spot HMT assay: inhibition of PRC2 enzymatic activity (transfer of tritiated methyl from SAM to core histone, filter binding); type: biochemical; settings: Inhibition of PRC2-mediated enzymatic activity; 10 nM PRC2 complex, 0.05 mg/ml core histone H3, 1 uM 3H-SAM, 1 hr at 30°C
Chain of purified human, His-tagged PRC2 complex (Q15910 whole entry): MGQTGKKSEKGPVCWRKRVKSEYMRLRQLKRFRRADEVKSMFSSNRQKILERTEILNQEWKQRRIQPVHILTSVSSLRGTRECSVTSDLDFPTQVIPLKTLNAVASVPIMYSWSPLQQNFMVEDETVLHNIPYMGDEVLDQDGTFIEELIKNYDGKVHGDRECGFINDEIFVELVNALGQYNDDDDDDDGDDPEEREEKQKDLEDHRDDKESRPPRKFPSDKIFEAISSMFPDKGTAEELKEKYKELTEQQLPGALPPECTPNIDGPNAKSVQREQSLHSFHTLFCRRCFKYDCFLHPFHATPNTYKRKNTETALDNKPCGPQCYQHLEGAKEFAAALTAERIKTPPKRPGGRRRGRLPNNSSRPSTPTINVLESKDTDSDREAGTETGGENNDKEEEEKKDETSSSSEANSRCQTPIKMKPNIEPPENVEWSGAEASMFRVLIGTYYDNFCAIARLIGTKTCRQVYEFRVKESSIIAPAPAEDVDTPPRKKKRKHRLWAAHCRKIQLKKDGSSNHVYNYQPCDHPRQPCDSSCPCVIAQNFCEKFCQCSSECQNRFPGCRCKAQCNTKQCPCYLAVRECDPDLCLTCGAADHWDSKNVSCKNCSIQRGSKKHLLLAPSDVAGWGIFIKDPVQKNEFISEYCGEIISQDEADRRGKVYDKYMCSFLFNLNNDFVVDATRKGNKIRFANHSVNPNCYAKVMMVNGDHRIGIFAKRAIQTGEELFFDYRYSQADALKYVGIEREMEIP
Chain of purified human, His-tagged PRC2 complex (O75530 whole entry): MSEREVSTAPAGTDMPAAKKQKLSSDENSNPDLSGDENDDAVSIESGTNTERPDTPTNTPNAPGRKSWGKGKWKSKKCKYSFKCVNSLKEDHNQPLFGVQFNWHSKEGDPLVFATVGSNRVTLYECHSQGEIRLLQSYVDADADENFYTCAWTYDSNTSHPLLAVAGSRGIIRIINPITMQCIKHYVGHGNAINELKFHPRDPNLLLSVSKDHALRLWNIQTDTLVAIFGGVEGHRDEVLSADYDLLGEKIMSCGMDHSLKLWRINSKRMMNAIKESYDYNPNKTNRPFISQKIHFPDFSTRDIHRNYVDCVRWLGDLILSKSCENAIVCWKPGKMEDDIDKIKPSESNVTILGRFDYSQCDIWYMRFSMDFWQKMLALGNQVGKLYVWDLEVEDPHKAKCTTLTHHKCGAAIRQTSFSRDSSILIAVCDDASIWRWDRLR
Chain of purified human, His-tagged PRC2 complex (Q15022 whole entry partner): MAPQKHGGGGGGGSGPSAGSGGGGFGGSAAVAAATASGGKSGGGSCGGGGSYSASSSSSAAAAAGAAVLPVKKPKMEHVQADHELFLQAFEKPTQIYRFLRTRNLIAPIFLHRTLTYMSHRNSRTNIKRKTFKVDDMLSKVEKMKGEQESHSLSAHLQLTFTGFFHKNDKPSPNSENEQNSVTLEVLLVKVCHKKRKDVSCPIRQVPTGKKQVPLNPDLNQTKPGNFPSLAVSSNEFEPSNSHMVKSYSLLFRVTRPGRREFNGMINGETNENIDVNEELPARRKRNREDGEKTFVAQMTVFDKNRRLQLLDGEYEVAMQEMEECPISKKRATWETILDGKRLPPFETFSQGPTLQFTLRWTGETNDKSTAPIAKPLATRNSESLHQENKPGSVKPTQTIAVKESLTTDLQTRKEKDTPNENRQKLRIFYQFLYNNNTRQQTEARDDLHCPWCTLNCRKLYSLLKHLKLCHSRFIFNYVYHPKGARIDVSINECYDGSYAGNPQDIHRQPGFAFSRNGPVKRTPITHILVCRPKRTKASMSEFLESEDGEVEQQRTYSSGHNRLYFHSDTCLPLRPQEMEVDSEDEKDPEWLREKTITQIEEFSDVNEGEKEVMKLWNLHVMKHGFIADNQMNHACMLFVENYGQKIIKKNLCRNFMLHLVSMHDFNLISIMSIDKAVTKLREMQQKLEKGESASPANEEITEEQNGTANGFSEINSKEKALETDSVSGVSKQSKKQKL
Chain of purified human, His-tagged PRC2 complex (Q6ZN18 whole entry partner): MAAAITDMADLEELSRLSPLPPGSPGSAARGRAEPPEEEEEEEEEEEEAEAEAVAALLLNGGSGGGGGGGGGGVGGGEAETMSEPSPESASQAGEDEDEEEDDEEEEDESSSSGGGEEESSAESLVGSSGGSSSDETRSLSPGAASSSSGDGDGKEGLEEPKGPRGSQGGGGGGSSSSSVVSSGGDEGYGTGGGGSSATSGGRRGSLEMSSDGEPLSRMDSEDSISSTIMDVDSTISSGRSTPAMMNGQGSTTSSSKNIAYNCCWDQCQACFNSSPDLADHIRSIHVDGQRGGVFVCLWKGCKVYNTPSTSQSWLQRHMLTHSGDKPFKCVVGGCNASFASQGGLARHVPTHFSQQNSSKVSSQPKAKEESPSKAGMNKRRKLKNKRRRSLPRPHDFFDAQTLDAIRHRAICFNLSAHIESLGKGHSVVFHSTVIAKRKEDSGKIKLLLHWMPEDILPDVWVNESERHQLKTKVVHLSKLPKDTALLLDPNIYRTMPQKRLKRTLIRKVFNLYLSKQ
Chain of purified human, His-tagged PRC2 complex (Q09028 whole entry partner): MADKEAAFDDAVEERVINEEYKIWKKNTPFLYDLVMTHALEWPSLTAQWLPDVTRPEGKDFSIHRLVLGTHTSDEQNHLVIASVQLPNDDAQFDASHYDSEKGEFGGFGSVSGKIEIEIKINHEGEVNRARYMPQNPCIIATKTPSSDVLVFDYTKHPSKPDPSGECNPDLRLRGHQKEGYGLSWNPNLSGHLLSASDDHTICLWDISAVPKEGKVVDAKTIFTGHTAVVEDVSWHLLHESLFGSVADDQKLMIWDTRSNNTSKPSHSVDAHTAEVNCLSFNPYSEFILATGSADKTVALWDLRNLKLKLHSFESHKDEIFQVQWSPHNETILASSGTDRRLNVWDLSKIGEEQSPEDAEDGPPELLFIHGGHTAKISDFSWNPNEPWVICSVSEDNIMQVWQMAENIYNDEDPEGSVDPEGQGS
From the text: The assay uses purified human, His-tagged PRC2 complex, including N-terminal His-tagged EZH2 enzyme, N-terminal Flag-tagged embryonic ectoderm development protein (EED), N-terminal His-tagged suppressor of zeste 12 (SUZ12), N-terminal His-tagged AEBP2, and N-terminal His-tagged RbAp48. In this assay, the transfer of the tritiated methyl group from radiolabeled S-adenosyl methionine (SAM) to purified core histone protein by EZH2 is quantitated after filtration to determine the activity of the core PRC2 complex in the presence and absence of compound.
The initial starting concentration for the serial dilutions of each compound was 1.0 µM. […] SAH (S-(5-adenosyl)-L-homocysteine) was used as a positive control for assay validation.
An aliquot of each serial dilution of test compound was added to deep 384 well plate using Acoustic Technology instrument (Echo 550, LabCyte) containing reaction buffer (50 mM Tris-HCl (pH 8.)), 0.01% Brij35, 1 mM EDTA, 1 mM DTT, 1 mM PMSF and 1% DMSO), 10 nM purified PRC2 complex and 0.05 mg/ml core histone H3 in a 5 µl volume. The reaction was mixed gently and then pre-incubated for 20 min at 30°C. The enzymatic reaction was initiated by adding 1 uM S-Adenosyl-L-[methyl - ^3H]methionine and incubated for 1 hr at 30°C. After 1 hr, the reaction product was detected using a filter binding method and the amount of tritiated H3 core histone was quantitated using a scintillation counter.

Karpas 422 cells = assay: Karpas 422 cell viability, CTG (Cell Titre Glo) assay; type: cell-based, human; settings: Homo sapiens; Inhibition of proliferation of Karpas 422 cells (EZH2 Y641N); viability measured Day 4, Day 7 or Day 11, time point of the tabulated values not stated
Method: Karpas 422 cell line is a human B cell non-Hodgkin's lymphoma cell line established from a patient having DLBCL. This EZH2 heterozygotic cell line expresses a mutant form of EZH2 enzyme (Y641N) that increases histone H3 methylation and this mutation has been implicated in the tumorgenesis of lymphomas, such as DLBCL.
Karpas 422 cells (PHE cat no., 06101702) were cultured in RPMI medium supplemented with 20% fetal bovine serum and 1% penicillin/1% streptomycin and plated at a density of 1000 cells/90 µl/well in 96 well white assay plates. A dose response curve for compounds of the present invention was determined by adding a 10µl aliquot of stock solutions of varying concentrations of compounds to the same medium in each well, over a concentration range of 10µM using 3-fold dilutions to a final concentration of 1.5nM. The plates were incubated at 37° C for predetermined time periods, Day 4, Day 7, or Day 11, and the viability of the cells was measured using a CTG assay kit (Cell Titre Glo; Promega cat.no G7573) on Day 4 and Day 7 in accordance with the manufacturer's instructions.
For the viability assay for the Day 11 plates, the plates were subjected to centrifugation at 1100 rpm for five minutes on Day 7 and the supernatant was removed by aspiration. The cells were resuspended in 90 µl aliquot of the appropriate growth medium lacking the compound followed by addition of 10 µl of a 10X stock of the same compound at the same concentration. The viability of the Day 11 cells was measured using the CTG assay kit described above in accordance with the manufacturer's instructions. The IC50 values for each compound at each predetermined time point were calculated using Graph pad PRISM software and the results are shown in Table 15. A = ≤250 nM; B = […] - ≤500 nM; and C = >500 nM.

Row | IC50 [1] | IC50 (Karpas 422 cells) | SMILES
1 | < 100 nM | ≤ 250 nM | COC1CCN(Cc2ccc(-c3cnc(NCc4c(F)ccc5c4CCO5)n4cc(C#N)nc34)cc2)C1 (centres unmarked) [Example 53, 5-(((5-fluoro-2,3-dihydrobenzofuran-4-yl)methyl)amino)-8-(4-((3-methoxypyrrolidin-1-yl)methyl)phenyl)imidazo[1,2-c]pyrimidine-2-carbonitrile]
2 | < 100 nM | ≤ 250 nM | CN(C)Cc1ccc(-c2cnc(NCc3c(F)ccc4c3CCO4)n3cc(C#N)nc23)c(Cl)c1 [Example 33, 8-(2-chloro-4-((dimethylamino)methyl)phenyl)-5-(((5-fluoro-2,3-dihydrobenzofuran-4-yl)methyl)amino)imidazo[1,2-c]pyrimidine-2-carbonitrile]
3 | < 100 nM | ≤ 250 nM | CS(=O)(=O)c1ccc(-c2cnc(NCc3c(F)ccc4c3CCO4)n3cc(C#N)nc23)cc1 [Example 73, 5-(((5-fluoro-2,3-dihydrobenzofuran-4-yl)methyl)amino)-8-(4-(methylsulfonyl)phenyl)imidazo[1,2-c]pyrimidine-2-carbonitrile]
4 | < 100 nM | ≤ 250 nM | COc1ncc(-c2cnc(NCc3c(F)ccc4c3CCO4)n3cc(C#N)nc23)c(C)n1 [Example 88, 5-(((5-fluoro-2,3-dihydrobenzofuran-4-yl)methyl)amino)-8-(2-methoxy-4-methylpyrimidin-5-yl)imidazo[1,2-c]pyrimidine-2-carbonitrile]
5 | 100 to 500 nM | ≤ 250 nM | Cc1nc(N2CCN(C)CC2)ccc1-c1cnc(NCc2c(F)ccc3c2CCO3)n2cc(C#N)nc12 [Example 136, 5-(((5-fluoro-2,3-dihydrobenzofuran-4-yl)methyl)amino)-8-(2-methyl-6-(4-methylpiperazin-1-yl)pyridin-3-yl)imidazo[1,2-c]pyrimidine-2-carbonitrile]
6 | 100 to 500 nM | ≤ 250 nM | CN(C)Cc1c(F)cc(-c2cnc(NCc3c(F)ccc4c3CCO4)n3cc(C#N)nc23)cc1F [Example 149, 8-(4-((dimethylamino)methyl)-3,5-difluorophenyl)-5-(((5-fluoro-2,3-dihydrobenzofuran-4-yl)methyl)amino)imidazo[1,2-c]pyrimidine-2-carbonitrile]
7 | < 100 nM | ≤ 250 nM | N#Cc1cn2c(NCc3c(F)ccc4c3CCO4)ncc(-c3cccnc3)c2n1 [Example 100, 5-(((5-fluoro-2,3-dihydrobenzofuran-4-yl)methyl)amino)-8-(pyridin-3-yl)imidazo[1,2-c]pyrimidine-2-carbonitrile]
8 | < 100 nM | ≤ 250 nM | Cc1cc(C(=O)N(C)C)ccc1-c1cnc(NCc2c(F)ccc3c2CCO3)n2cc(C#N)nc12 [Example 44, 4-(2-cyano-5-(((5-fluoro-2,3-dihydrobenzofuran-4-yl)methyl)amlno)lmldazo[1,2-c]pyrlmldln-8-yl)-N,N,3-trimethylbenzamide]
9 | > 500 nM | > 500 nM | Cc1cc(-c2cnc(NCc3c(Cl)ccc4c3CCO4)n3cc(C#N)nc23)n(C)n1 [Example 29, 5-(((5-chloro-2,3-dihydrobenzofuran-4-yl)methyl)amino)-8-(1,3-dimethyl-1H-pyrazol-5-yl)imidazo[1,2-c]pyrimidine-2-carbonitrile]
10 | < 100 nM | ≤ 250 nM | Cc1cc(C(=O)N(C)C)c(F)cc1-c1cnc(NCc2c(F)ccc3c2CCO3)n2cc(C#N)nc12 [Example 43, 4-(2-cyano-5-(((5-fluoro-2,3-dihydrobenzofuran-4-yl)methyl)amlno)lmldazo[1,2-c]pyrlmldln-8-yl)-2-fluoro-N,N,5-trimethylbenzamide]
11 | < 100 nM | > 500 nM | N#Cc1cn2c(NCc3c(F)ccc4c3CCO4)ncc(-c3cnn(C4CCCCO4)c3)c2n1 (centres unmarked) [Example 118, 5-(((5-fluoro-2,3-dihydrobenzofuran-4-yl)methyl)amino)-8-(1-(tetrahydro-2H-pyran-2-yl)-1H-pyrazol-4-yl)imidazo[1,2-c]pyrimidine-2-carbonitrile]
12 | 100 to 500 nM | ≤ 250 nM | CCn1cc(-c2cnc(NCc3c(F)ccc4c3CCO4)n3cc(C#N)nc23)cn1 [Example 119, 8-(1-ethyl-1H-pyrazol-4-yl)-5-(((5-fluoro-2,3-dihydrobenzofuran-4-yl)methyl)amino)imidazo[1,2-c]pyrimidine-2-carbonitrile]
13 | < 100 nM | 250 to 500 nM | Cc1nn(C(C)C)cc1-c1cnc(NCc2c(F)ccc3c2CCO3)n2cc(C(N)=O)nc12 [Example 13, 5-(((5-fluoro-2,3-dihydrobenzofuran-4-yl)methyl)amino)-8-(1-isopropyl-3-methyl-1H-pyrazol-4-yl)imidazo[1,2-c]pyrimidine-2-carboxamide]
14 | < 100 nM | ≤ 250 nM | Cc1nc(N2CCN(C)CC2)ccc1-c1cnc(NCc2c(F)ccc3c2CCO3)n2cc(C(N)=O)nc12 [Example 138, 5-(((5-fluoro-2,3-dihydrobenzofuran-4-yl)methyl)amino)-8-(2-methyl-6-(4-methylpiperazin-1-yl)pyridin-3-yl)imidazo[1,2-c]pyrimidine-2-carboxamide]
15 | < 100 nM | > 500 nM | COc1cc(-c2cnc(NCc3c(F)ccc4c3CCO4)n3cc(C#N)nc23)ccn1 [Example 113, 5-(((5-fluoro-2,3-dihydrobenzofuran-4-yl)methyl)amino)-8-(2-methoxypyridin-4-yl)imidazo[1,2-c]pyrimidine-2-carbonitrile]
16 | < 100 nM | ≤ 250 nM | N#Cc1cn2c(NCc3c(F)ccc4c3CCO4)ncc(-c3cncc(F)c3)c2n1 [Example 97, 5-(((5-fluoro-2,3-dihydrobenzofuran-4-yl)methyl)amino)-8-(5-fluoropyridin-3-yl)imidazo[1,2-c]pyrimidine-2-carbonitrile]
17 | < 100 nM | ≤ 250 nM | Cc1ncc(-c2cnc(NCc3c(F)ccc4c3CCO4)n3cc(C#N)nc23)cc1N [Example 129, 8-(5-amino-6-methylpyridin-3-yl)-5-(((5-fluoro-2,3-dihydrobenzofuran-4-yl)methyl)amino)imidazo[1,2-c]pyrimidine-2-carbonitrile]
18 | < 100 nM | 250 to 500 nM | CNS(=O)(=O)c1ccc(-c2cnc(NCc3c(F)ccc4c3CCO4)n3cc(C#N)nc23)cc1 [Example 59, 4-(2-cyano-5-(((5-fluoro-2,3-dihydrobenzofuran-4-yl)methyl)amino)imidazo[1,2-c]pyrimidin-8-yl)-N-methylbenzenesulfonamide]
19 | 100 to 500 nM | ≤ 250 nM | COCCn1cc(-c2cnc(NCc3c(F)ccc4c3CCO4)n3cc(C#N)nc23)cn1 [Example 117, 5-(((5-fluoro-2,3-dihydrobenzofuran-4-yl)methyl)amino)-8-(1-(2-methoxyethyl)-1H-pyrazol-4-yl)imidazo[1,2-c]pyrimidine-2-carbonitrile]
20 | < 100 nM | > 500 nM | Cc1nn(C)cc1-c1cnc(NCc2c(F)ccc3c2CCO3)n2cc(C#N)nc12 [Example 72, 8-(1,3-dimethyl-1H-pyrazol-4-yl)-5-(((5-fluoro-2,3-dihydrobenzofuran-4-yl)methyl)amino)imidazo[1,2-c]pyrimidine-2-carbonitrile]
21 | < 100 nM | > 500 nM | Cc1ncccc1-c1cnc(NCc2c(F)ccc3occc23)n2cc(C(N)=O)nc12 [Example 12, 5-(((5-fluorobenzofuran-4-yl)methyl)amino)-8-(2-methylpyridin-3-yl)imidazo[1,2-c]pyrimidine-2-carboxamide]

Row | SMILES | IC50 [1] | IC50 (Karpas 422 cells)
22 | N#Cc1cn2c(NCc3c(F)ccc4c3CCO4)ncc(-c3cccnn3)c2n1 [Example 142, 5-(((5-fluoro-2,3-dihydrobenzofuran-4-yl)methyl)amino)-8-(pyridazin-3-yl)imidazo[1,2-c]pyrimidine-2-carbonitrile] | < 100 nM | ≤ 250 nM
